Literature values, collected in patent publication US8076148B2, “Cytochrome c protein and assay” (GE Healthcare UK Limited, priority 2003, dated 2011).

Key:
[1] = tested on: rat pheochromocytoma-6 (PC6) cells; details: PC6 cells expressing rat cytochrome c-GFP
Apaf-1 = molecular target: T1, Apaf-1 (Homo sapiens, UniProt O14727); details: in vitro
T1 sequence (O14727 1-1248): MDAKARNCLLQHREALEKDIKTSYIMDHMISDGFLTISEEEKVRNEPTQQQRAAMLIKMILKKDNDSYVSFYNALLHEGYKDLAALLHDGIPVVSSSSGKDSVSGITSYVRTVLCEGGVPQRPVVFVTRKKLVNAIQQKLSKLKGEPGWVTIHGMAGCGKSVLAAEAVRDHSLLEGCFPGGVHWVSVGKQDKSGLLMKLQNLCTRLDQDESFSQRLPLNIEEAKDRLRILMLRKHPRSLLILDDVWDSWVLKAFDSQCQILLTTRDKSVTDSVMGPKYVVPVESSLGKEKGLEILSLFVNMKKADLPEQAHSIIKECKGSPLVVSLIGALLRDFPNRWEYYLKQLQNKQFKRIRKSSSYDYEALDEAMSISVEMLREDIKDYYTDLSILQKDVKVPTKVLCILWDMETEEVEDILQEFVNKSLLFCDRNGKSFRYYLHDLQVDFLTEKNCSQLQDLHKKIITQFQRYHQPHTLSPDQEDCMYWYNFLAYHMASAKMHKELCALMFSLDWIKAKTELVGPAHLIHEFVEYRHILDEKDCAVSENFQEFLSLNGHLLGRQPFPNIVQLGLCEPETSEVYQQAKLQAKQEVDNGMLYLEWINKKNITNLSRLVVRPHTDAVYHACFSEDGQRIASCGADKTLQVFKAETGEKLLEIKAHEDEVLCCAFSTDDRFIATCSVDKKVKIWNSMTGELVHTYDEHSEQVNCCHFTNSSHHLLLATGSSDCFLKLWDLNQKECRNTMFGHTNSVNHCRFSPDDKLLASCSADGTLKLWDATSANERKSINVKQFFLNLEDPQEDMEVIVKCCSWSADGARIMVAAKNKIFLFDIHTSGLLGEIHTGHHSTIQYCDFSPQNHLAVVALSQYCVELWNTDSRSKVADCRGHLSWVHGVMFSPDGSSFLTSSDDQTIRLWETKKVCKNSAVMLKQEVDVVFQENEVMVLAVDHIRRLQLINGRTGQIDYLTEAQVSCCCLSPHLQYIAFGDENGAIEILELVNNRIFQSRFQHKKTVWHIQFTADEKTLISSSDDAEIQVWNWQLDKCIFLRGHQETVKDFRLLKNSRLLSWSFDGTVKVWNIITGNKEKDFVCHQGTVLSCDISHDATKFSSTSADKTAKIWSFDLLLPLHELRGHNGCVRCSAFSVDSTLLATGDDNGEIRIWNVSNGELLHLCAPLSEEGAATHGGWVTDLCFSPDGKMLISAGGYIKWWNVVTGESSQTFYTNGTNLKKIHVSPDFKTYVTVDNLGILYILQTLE

caspase-9 = details: in vitro

Compound | release of cytochrome c-GFP fusion from the mitochondria [1] | binding to Apaf-1 (Apaf-1) | caspase activation (caspase-9)
CN[C@@H]1C[C@H]2O[C@@](C)([C@@H]1OC)n1c3ccccc3c3c4c(c5c6ccccc6n2c5c31)C(=O)NC4 [staurosporine] | led to release of the fusion from the mitochondria | – | –
K72A: cytochrome c mutant, lysine 72 to alanine, from the literature in vitro studies (Kluck et al.; Yu et al.) | – | no detectable binding | no detectable binding or caspase-9 activation
Horse cytochrome c: horse wild type cytochrome c, highly homologous to human cytochrome c | – | – | can initiate caspase activation
yeast cytochrome c: yeast wild type cytochrome c | – | did not measurably bind | nor activate caspase
